Where two headings read alike, the source gives them in different places.
Legend:
Botrytis cinerea = Botrytis cinerea test (in vitro)/microtiter plates, Example 5; type: cell-based; settings: 72 h, single active compound, spore suspension in PDB, 3 days incubation, ipconazole as commercially available formulation, read-out: % efficacy
Pyricularia oryzae [1] = experiment: microbe, parasite or virus in culture; type: cell-based; settings: 72 h, read-out: % efficacy
Pyricularia oryzae [2] = experiment: microbe, parasite or virus in culture; type: cell-based; settings: 72 h, read-out: % efficacy; remark: listed apart in the source
Pyricularia oryzae [3] = experiment: microbe, parasite or virus in culture; type: cell-based; settings: 120 h, read-out: % efficacy
Pyricularia oryzae [4] = experiment: microbe, parasite or virus in culture; type: cell-based; settings: 96 h, read-out: % efficacy
Rhizoctonia solani = Rhizoctonia solani test (in vitro)/microtiter plates, Example 2; settings: 96 h, read-out: % efficacy
Coriolus versicolor = experiment: microbe, parasite or virus in culture; settings: Trametes versicolor, 72 h, read-out: % efficacy

In the case of `CC(C)C1CCC(Cc2ccc(Cl)cc2)C1(O)Cn1cncn1` (centres unmarked) [ipconazole], the Emax at 0.003 ppm (Botrytis cinerea) is reported as 3%.
`COCC(=O)N(c1c(C)cccc1C)[C@H](C)C(=O)OC` [mefenoxam, metalaxyl-M] gave an Emax at 0.3 ppm (Pyricularia oryzae [1]) of 16%.
With `CO/N=C(/C1=NOCCO1)c1ccccc1Oc1ncnc(Oc2ccccc2Cl)c1F` [fluoxastrobin] the Emax at 0.1 ppm (Pyricularia oryzae [2]) was 80%, the Emax at 0.3 ppm (Pyricularia oryzae [3]) was 86% and the Emax at 0.3 ppm (Pyricularia oryzae [1]) was 84%. The Emax at 0.1 ppm (Pyricularia oryzae [4]) was 82%, the Emax at 0.1 ppm (Rhizoctonia solani) was 64% and the Emax at 0.003 ppm (Botrytis cinerea) was 9%. It also gave an Emax at 0.03 ppm (Coriolus versicolor) of 24%.
With `C=CCNC(=O)c1c([Si](C)(C)C)sc(C)c1C` [silthiofam] the Emax at 0.1 ppm (Pyricularia oryzae [2]) was 1%.
In the case of `O=C(Nc1ccccc1-c1ccc(Cl)cc1)c1cccnc1Cl` [boscalid], the Emax at 0.1 ppm (Rhizoctonia solani) is reported as 67%.
Compound `CC1COC(Cn2cncn2)(c2ccc(Oc3ccc(Cl)cc3)cc2Cl)O1` (centres unmarked) [difenoconazole] has an Emax at 0.03 ppm (Coriolus versicolor) of 93%.
`OC(Cn1cncn1)(c1ccc(F)cc1)c1ccccc1F` (centres unmarked) [flutriafol] showed an Emax at 0.3 ppm (Pyricularia oryzae [3]) of 6%.
Work on `CCCCC(C#N)(Cn1cncn1)c1ccc(Cl)cc1` (centres unmarked) [myclobutanil] yielded an Emax at 0.1 ppm (Pyricularia oryzae [4]) of 4%.
